# Tests used:
# [1] = biological target: hepatic lipase (HL) (Homo sapiens (Human), UniProt P11150); assay: HL assay: hepatic lipase activity with fluorescent substrate A10070 in DMPG vesicles; format: biochemical
# Summary of the method: (§1)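 Vesicles prepared: A10070 dried with DMPG, resuspended in HEPES pH 8.0/NaCl/EDTA, sonicated on ice. Enzyme incubated with compound 30 min at 37° C. Reaction started with 1:10 diluted vesicles. Fluorescence (490/530 nm) followed 60 min; slope from 300–900 secs gives rate.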
# [2] = biological target: Endothelial lipase (EL) (Homo sapiens (Human), UniProt Q9Y5X9); assay: EL assay: endothelial lipase activity with fluorescent substrate A10070 in DMPG vesicles; format: biochemical
# Summary of the method: as §1
# hepatic lipase (HL), sequence (P11150 23-499, species assumed): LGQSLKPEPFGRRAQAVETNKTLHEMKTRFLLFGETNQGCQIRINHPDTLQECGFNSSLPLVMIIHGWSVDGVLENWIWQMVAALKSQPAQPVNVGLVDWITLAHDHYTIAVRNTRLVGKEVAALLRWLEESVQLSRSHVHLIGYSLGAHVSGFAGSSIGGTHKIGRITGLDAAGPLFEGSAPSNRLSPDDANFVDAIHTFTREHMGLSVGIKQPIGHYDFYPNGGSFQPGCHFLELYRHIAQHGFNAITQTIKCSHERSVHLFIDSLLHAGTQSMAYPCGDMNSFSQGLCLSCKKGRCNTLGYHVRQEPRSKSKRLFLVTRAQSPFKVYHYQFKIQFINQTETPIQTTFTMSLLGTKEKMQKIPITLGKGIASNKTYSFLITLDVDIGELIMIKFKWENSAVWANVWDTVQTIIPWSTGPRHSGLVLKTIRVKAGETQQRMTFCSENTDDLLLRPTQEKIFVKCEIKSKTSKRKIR
# Endothelial lipase (EL), sequence (Q9Y5X9 21-500): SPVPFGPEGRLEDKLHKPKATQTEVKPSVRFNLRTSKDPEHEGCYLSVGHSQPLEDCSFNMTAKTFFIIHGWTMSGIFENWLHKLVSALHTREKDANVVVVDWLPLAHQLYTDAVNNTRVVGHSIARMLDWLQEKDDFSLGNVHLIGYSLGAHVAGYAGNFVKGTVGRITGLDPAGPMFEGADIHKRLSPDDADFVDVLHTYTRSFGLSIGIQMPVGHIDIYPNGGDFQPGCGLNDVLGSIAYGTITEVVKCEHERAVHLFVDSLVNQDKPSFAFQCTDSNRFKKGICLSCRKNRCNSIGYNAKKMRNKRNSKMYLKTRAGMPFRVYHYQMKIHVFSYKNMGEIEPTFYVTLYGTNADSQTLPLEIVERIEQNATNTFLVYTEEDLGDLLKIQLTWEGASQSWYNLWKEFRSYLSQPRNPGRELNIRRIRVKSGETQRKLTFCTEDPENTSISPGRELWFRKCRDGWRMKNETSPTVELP
Compound,IC50 [1] [nM],IC50 [2] [nM]
"NS(=O)(=O)CCNC(=O)C(c1nc2cc(-c3ccc(F)nc3)ccc2s1)S(=O)(=O)CCC(F)(F)F (stereo not shown) [Example B311, 2-[5-(6-fluoropyridin-3-yl)-1,3-benzothiazol-2-yl]-N-(2-sulfamoylethyl)-2-(3,3,3-trifluoropropane-sulfonyl)acetamide]",24.2,3.1
"CC(C)S(=O)(=O)C(C(=O)NCCS(N)(=O)=O)c1nc2cc(-c3ccc(F)nc3)ccc2s1 (stereo not shown) [Example B312, 2-[5-(6-fluoropyridin-3-yl)-1,3-benzothiazol-2-yl]-2-(propane-2-sulfonyl)-N-(2-sulfamoylethyl)a-cetamide]",153,6.2
"NS(=O)(=O)CCNC(=O)C(c1nc2ccc(-c3ccc(F)nc3)cc2s1)S(=O)(=O)CCN1CCOCC1 (stereo not shown) [Example B313, 2-[6-(6-fluoropyridin-3-yl)-1,3-benzothiazol-2-yl]-2-[2-(morpholin-4-yl)ethanesulfonyl]-N-(2-sulfamoylethyl)acetamide]",106,10.8
"NS(=O)(=O)CCNC(=O)C(c1nc2ccc(-c3ccc(CO)cc3)cc2s1)S(=O)(=O)CCN1CCOCC1 (stereo not shown) [Example B314, 2-{6-[4-(hydroxymeth-yl)phenyl]-1,3-benzothiazol-2-yl}-2-[2-(morpholin-4-yl)ethanesulfonyl]-N-(2-sulfamoylethyl)acetamide]",35.1,16.1
"NS(=O)(=O)CCNC(=O)C(c1nc2ccc(-c3cncnc3)cc2s1)S(=O)(=O)CCN1CCOCC1 (stereo not shown) [Example B315, 2-[2-(morpholin-4-yl)ethanesulfonyl]-2-[6-(pyrimidin-5-yl)-1,3-benzothiazol-2-yl]-N-(2-sulfamoylethyl)acetamide]",10000,55.6
"NS(=O)(=O)CCNC(=O)C(c1nc2ccc(-c3ccc(C(F)(F)F)nc3)cc2s1)S(=O)(=O)CCN1CCOCC1 (stereo not shown) [Example B316, 2-[2-(morpholin-4-yl)ethanesulfonyl]-N-(2-sulfamoylethyl)-2-{6-[6-(trifluoromethyl)pyridin-3-yl]-1,3-benzothiazol-2-yl}acetamide]",399,145
"CS(=O)(=O)C(C(=O)NCCS(N)(=O)=O)c1nc2ccc(-c3cnn(CCC4CCOCC4)c3)cc2s1 (stereo not shown) [Example B317, 2-methanesulfonyl-2-(6-{1-[2-(oxan-4-yl)ethyl]-1H-pyrazol-4-yl}-1,3-benzothiazol-2-yl)-N-(2-sulfamoylethyl)acetamide]",391,13
"CC1(O)CN(C(=O)c2ccc(-c3ccc4nc(C(C(=O)NCCS(N)(=O)=O)S(C)(=O)=O)sc4c3)cc2)C1 (stereo not shown) [Example B318, 2-{6-[4-(3-hydroxy-3-methylazetidine-1-carbonyl)phenyl]-1,3-benzothiazol-2-yl}-2-methanesulfonyl-N-(2-sulfamoylethyl)acetamide]",911,1.8
"CC1(O)CN(C(=O)c2ccc(-c3ccc4sc(C(C(=O)NCCS(N)(=O)=O)S(C)(=O)=O)nc4c3)cc2)C1 (stereo not shown) [Example B319, 2-{5-[4-(3-hydroxy-3-methylazetidine-1-carbonyl)phenyl]-1,3-benzothiazol-2-yl}-2-methanesulfonyl-N-(2-sulfamoylethyl)acetamide]",1000,4.8
"CC1(O)CN(C(=O)c2ccc(-c3ccc4nc(C(C(=O)NCCS(N)(=O)=O)S(=O)(=O)CCC(F)(F)F)sc4c3)cc2)C1 (stereo not shown) [Example B320, 2-{6-[4-(3-hydroxy-3-methylazetidine-1-carbonyl)phenyl]-1,3-benzothiazol-2-yl}-N-(2-sulfamoylethyl)-2-(3,3,3-trifluoropropanesulfonyl)a-cetamide]",1260,1.9
"CS(=O)(=O)C(C(=O)NCCS(N)(=O)=O)c1nc2cc(-c3ccc(C(=O)N4CC(F)(F)C4)cc3)ccc2s1 (stereo not shown) [Example B321, 2-{5-[4-(3,3-difluoroazetidine-1-carbonyl)phenyl]-1,3-benzothiazol-2-yl}-2-methanesulfonyl-N-(2-sulfamoylethyl)acetamide]",175,0.6
"CC1(O)CN(C(=O)c2ccc(-c3ccc4nc(C(C(=O)NCCS(N)(=O)=O)S(=O)(=O)Cc5ccc(C(F)(F)F)cc5)sc4c3)cc2)C1 (stereo not shown) [Example B322, 2-{6-[4-(3-hydroxy-3-methylazetidine-1-carbonyl)phenyl]-1,3-benzothiazol-2-yl}-N-(2-sulfamoylethyl)-2-{[4-(trifluoromethyl)phen-yl]methanesulfonyl}a-cetamide]",37.4,2.4
"CC1(O)CN(C(=O)c2ccc(-c3ccc4nc(C(C(=O)NCCS(N)(=O)=O)S(=O)(=O)Cc5ccc(OC(F)(F)F)cc5)sc4c3)cc2)C1 (stereo not shown) [Example B323, 2-{6-[4-(3-hydroxy-3-methylazetidine-1-carbonyl)phenyl]-1,3-benzothiazol-2-yl}-N-{2-sulfamoylethyl)-2-{[4-(trifluoromethoxy)phen-yl]methanesulfonyl}a-cetamide]",81.7,2.6
"NS(=O)(=O)CCNC(=O)C(c1nc2ccc(-c3ccc(C(=O)N4CCC(F)(F)C4)cc3)cc2s1)S(=O)(=O)Cc1ccc(OC(F)(F)F)cc1 (stereo not shown) [Example B324, 2-{6-[4-(3,3-difluoropyrrolidine-1-carbonyl)phen-yl]-1,3-benzothiazol-2-yl}-N-(2-sulfamoyl-ethyl)-2-{[4-(trifluoro-methoxy)phen-yl]methanesulfonyl}a-cetamide]",58.1,9.1
"Cc1cc2nc(C(C(=O)NCCS(N)(=O)=O)S(=O)(=O)Cc3ccccc3)sc2cc1-c1ccc(C(=O)O)cc1 (stereo not shown) [Example B325, 4-(5-methyl-2-{phen-ylmethanesulfonyl[(2-sulfa-moylethyl)carbamoyl]meth-yl}-1,3-benzothiazol-6-yl)benzoic acid]",104,1.2
"Cc1cc2nc(C(C(=O)NCCS(N)(=O)=O)S(C)(=O)=O)sc2cc1-c1ccc(C(=O)O)cc1 (stereo not shown) [Example B326, 4-(2-{methanesulfonyl[(2-sulfamoylethyl)carba-moyl]methyl}-5-methyl-1,3-benzothiazol-6-yl)benzoic acid]",201,1.6
"CS(=O)(=O)C(C(=O)NCCS(N)(=O)=O)c1nc2ccc(-c3ccc(C(=O)N4CC[C@H](O)C4)cc3)cc2s1 (stereo partly drawn) [Example B328, 2-(6-{4-[(3S)-3-hydroxypyrrolidine-1-carbonyl]phen-yl}-1,3-benzothiazol-2-yl)-2-methanesulfonyl-N-(2-sulfamoylethyl)a-cetamide]",2620,4
"CS(=O)(=O)C(C(=O)NCCS(N)(=O)=O)c1nc2ccc(-c3ccc(C(=O)N4CC[C@@H](O)C4)cc3)cc2s1 (stereo partly drawn) [Example B329, 2-(6-{4-[(3R)-3-hydroxy-pyrrolidine-1-carbonyl]phen-yl}-1,3-benzothiazol-2-yl)-2-methanesulfonyl-N-(2-sulfamoylethyl)a-cetamide]",262,1.8
"CS(=O)(=O)C(C(=O)NCCS(N)(=O)=O)c1nc2ccc(-c3ccc(C(=O)N4CC(F)C4)cc3)cc2s1 (stereo not shown) [Example B330, 2-{6-[4-(3-fluoroazetidine-1-carbonyl)phenyl]-1,3-benzothiazol-2-yl}-2-methanesulfonyl-N-(2-sulfamoylethyl)acetamide]",46.7,0.7
"NC(=O)c1cccc(-c2ccc3nc(C(C(=O)NCCS(N)(=O)=O)S(=O)(=O)CCC(F)(F)F)sc3c2)c1 (stereo not shown) [Example B331, 3-(2-{[(2-sulfamoylethyl)car-bamoyl](3,3,3-trifluoro-propanesulfonyl)methyl}-1,3-benzothiazol-6-yl)benzamide]",214,72.5
"NS(=O)(=O)CCNC(=O)C(c1nc2ccc(-c3cccc(C(=O)N4CCC(O)CC4)c3)cc2s1)S(=O)(=O)CCC(F)(F)F (stereo not shown) [Example B332, 2-{6-[3-(4-hydroxy-piperidine-1-carbonyl)phen-yl]-1,3-benzothiazol-2-yl}-N-(2-sulfamoyl-ethyl)-2-(3,3,3-trifluoro-propanesulfonyl)acetamide]",136,1.5
"NS(=O)(=O)CCNC(=O)C(c1nc2ccc(-c3cccc(C(=O)N4CCOCC4)c3)cc2s1)S(=O)(=O)CCC(F)(F)F (stereo not shown) [Example B333, 2-{6-[3-(morpholine-4-carbonyl)phenyl]-1,3-benzothiazol-2-yl}-N-(2-sulfamoylethyl)-2-(3,3,3-trifluoropropanesulfon-yl)acetamide]",119,9.8
"NS(=O)(=O)CCNC(=O)C(c1nc2ccc(-c3cccc(C(=O)N4CC(F)(F)C4)c3)cc2s1)S(=O)(=O)CCC(F)(F)F (stereo not shown) [Example B334, 2-{6-[3-(3,3-difluoro-azetidine-1-carbonyl)phen-yl]-1,3-benzothiazol-2-yl}-N-(2-sulfamoyl-ethyl)-2-(3,3,3-trifluoro-propanesulfonyl)acetamide]",60.4,14.2
"NS(=O)(=O)CCNC(=O)C(c1nc2ccc(-c3cccc(C(=O)N4CCCC(F)(F)C4)c3)cc2s1)S(=O)(=O)CCC(F)(F)F (stereo not shown) [Example B335, 2-{6-[3-(3,3-difluoro-piperidine-1-carbonyl)phen-yl]-1,3-benzothiazol-2-yl}-N-(2-sulfamoyl-ethyl)-2-(3,3,3-trifluoro-propanesulfonyl)acetamide]",14.7,5.5
"NS(=O)(=O)CCNC(=O)C(c1nc2ccc(-c3cccc(C(=O)N4CC(F)C4)c3)cc2s1)S(=O)(=O)CCC(F)(F)F (stereo not shown) [Example B336, 2-{6-[3-(3-fluoroazetidine-1-carbonyl)phenyl]-1,3-benzothiazol-2-yl}-N-(2-sulfamoylethyl)-2-(3,3,3-trifluoropropanesulfonyl)a-cetamide]",22.6,8.2
"NS(=O)(=O)CCNC(=O)C(c1nc2ccc(-c3cccc(C(=O)NC4CCC4)c3)cc2s1)S(=O)(=O)CCC(F)(F)F (stereo not shown) [Example B337, N-cyclobutyl-3-(2-{[(2-sulfamoylethyl)carba-moyl](3,3,3-trifluoropropane-sulfonyl)methyl}-1,3-benzothiazol-6-yl)benzamide]",28.4,6.8
